Here are results for ten compounds from patent US11319321B2, “[1,2,4]triazolo[1,5-a]pyrimidine compounds as PDE2 inhibitors” (Janssen Pharmaceutica NV, priority 2016, dated 2022).

Sequence of hPDE10A2 (Q9Y233 267-1055): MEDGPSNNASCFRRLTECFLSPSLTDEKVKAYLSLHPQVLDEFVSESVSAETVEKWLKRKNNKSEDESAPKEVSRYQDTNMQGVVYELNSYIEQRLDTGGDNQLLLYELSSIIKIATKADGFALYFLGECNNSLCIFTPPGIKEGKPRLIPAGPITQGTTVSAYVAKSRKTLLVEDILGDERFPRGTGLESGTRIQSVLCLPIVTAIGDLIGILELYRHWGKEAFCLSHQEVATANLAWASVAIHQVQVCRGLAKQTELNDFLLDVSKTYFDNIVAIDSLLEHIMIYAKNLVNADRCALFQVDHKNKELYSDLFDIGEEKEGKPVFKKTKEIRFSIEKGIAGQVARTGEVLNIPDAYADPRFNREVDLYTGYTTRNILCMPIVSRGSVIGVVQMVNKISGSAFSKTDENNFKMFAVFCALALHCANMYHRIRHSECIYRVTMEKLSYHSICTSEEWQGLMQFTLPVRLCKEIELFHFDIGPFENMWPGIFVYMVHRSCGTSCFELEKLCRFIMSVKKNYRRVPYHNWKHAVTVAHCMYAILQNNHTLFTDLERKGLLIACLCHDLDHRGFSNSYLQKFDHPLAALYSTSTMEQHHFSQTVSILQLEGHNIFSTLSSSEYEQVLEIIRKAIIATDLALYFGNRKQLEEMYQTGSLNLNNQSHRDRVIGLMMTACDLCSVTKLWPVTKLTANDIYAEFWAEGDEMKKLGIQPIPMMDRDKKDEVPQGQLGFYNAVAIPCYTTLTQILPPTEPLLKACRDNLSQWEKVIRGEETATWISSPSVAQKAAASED

In one experiment the target is T1, Human recombinant PDE2A (hPDE2A) (Homo sapiens, UniProt O00408).
T1 construct: made in house; host or cells: Sf9 insect cells (baculovirus)
T1 sequence (O00408 whole entry): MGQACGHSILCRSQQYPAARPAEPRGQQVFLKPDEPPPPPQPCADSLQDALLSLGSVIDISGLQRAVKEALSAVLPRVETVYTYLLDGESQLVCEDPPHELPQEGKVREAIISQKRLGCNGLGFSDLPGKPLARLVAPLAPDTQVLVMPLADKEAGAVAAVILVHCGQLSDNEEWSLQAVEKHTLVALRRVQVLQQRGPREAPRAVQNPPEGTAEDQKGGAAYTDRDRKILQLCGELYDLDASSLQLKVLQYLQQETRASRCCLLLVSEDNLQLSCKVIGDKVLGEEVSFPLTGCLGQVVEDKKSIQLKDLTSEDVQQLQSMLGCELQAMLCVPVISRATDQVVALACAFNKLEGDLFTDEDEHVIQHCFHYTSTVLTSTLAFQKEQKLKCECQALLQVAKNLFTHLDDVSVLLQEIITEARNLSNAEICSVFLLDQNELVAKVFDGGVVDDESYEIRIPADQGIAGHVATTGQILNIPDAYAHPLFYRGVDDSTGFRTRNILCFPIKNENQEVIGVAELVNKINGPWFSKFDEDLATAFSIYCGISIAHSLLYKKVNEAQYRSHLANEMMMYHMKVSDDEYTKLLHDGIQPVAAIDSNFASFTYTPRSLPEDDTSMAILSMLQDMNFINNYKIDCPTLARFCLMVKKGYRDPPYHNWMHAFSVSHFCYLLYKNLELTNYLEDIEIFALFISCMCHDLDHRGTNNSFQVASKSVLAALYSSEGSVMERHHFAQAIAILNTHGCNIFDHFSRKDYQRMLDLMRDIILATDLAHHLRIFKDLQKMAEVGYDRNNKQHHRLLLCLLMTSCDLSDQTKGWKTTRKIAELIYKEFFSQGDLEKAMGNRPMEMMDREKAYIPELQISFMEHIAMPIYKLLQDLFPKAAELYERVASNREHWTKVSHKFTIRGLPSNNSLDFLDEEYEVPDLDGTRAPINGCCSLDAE
Nature of the experiment: In vitro assay PDE2A (SPA, 3H-cGMP). It is filed as biochemical.
Conditions: not given
How it is done:
Human recombinant PDE2A (hPDE2A) was expressed in Sf9 cells using a recombinant rPDE10A baculovirus construct. Cells were harvested after 48 h of infection and the hPDE2A protein was purified by metal chelate chromatography on Ni-sepharose 6FF. Tested compounds were dissolved and diluted in 100% DMSO to a concentration 100 fold of the final concentration in the assay. Compound dilutions (0.4 μl) were added in 384 well plates to 20 μl of incubation buffer (50 mM Tris pH 7.8, 8.3 mM MgCl2, 1.7 mM EGTA). 10 μl of hPDE2A enzyme in incubation buffer was added and the reaction was started by addition of 10 μl substrate to a final concentration of 10 μM cGMP and 0.01 μCi ^3H-cGMP. The reaction was incubated for 45 minutes at room temperature. […] After sedimentation of the beads during 30 minutes the radioactivity was measured in a Perkin Elmer Topcount scintillation counter and results were expressed as cpm. For blanc values the enzyme was omitted from the reaction and replaced by incubation buffer. Control values were obtained by addition of a final concentration of 1% DMSO instead of compound.
Take `Cc1cc(CN2CC[C@@H](C)[C@H](c3cc(C(F)F)nc4ncnn34)C2)cc(Cl)n1.Cl` [Compound 10]: the IC50 was 24.5 nM.
On the same count and under the same terms, then `Cc1cc(CN2CC[C@H](C)[C@@H](c3cc(C(F)F)nc4ncnn34)C2)cc(Cl)n1.Cl` [Compound 11], with 3890 nM; and `C[C@@H]1CCN(Cc2ccc(Cl)c(Cl)c2)C[C@H]1c1cc(C(F)F)nc2ncnn12` [Compound 14], with 56.2 nM.
Take `Cc1cc(CN2CC[C@@H](C)[C@H](c3cc(C(F)F)nc4ncnn34)C2)ccn1.Cl` [Compound 15]: the IC50 is 95.5 nM.
For `Cc1cc(CN2CC[C@H](C)[C@@H](c3cc(C(F)F)nc4ncnn34)C2)ccn1.Cl` [Compound 16], the IC50 is 5890 nM.
On the same count and under the same terms, the result for `CC(C)c1ccc(CN2CC[C@@H](C)[C@H](c3cc(C(F)F)nc4ncnn34)C2)cc1` [Compound 18] reads 282 nM.
For the compound `C[C@@H]1CCN(Cc2nccc3ccccc23)C[C@H]1c1cc(C(F)F)nc2ncnn12` [Compound 19], the IC50 was 324 nM.
The same measure, in the same setting: then `C[C@@H]1CCN(Cc2ccc(C#N)cc2)C[C@H]1c1cc(C(F)F)nc2ncnn12` [Compound 21], with 468 nM; and `C[C@@H]1CCN(Cc2cccc(OC(F)F)c2)C[C@H]1c1cc(C(F)F)nc2ncnn12` [Compound 22], with 562 nM; and `C[C@@H]1CCN(Cc2ccc(F)c(C(F)(F)F)c2)C[C@H]1c1cc(C(F)F)nc2ncnn12` [Compound 30], with 490 nM.

Still in this experiment, the particulars now being: 10 μM cGMP substrate.
One may read the Emax as the greatest response seen or fitted, relative to the assay's reference. For the compound `Cc1cc(CN2CC[C@@H](C)[C@H](c3cc(C(F)F)nc4ncnn34)C2)cc(Cl)n1.Cl` [Compound 10], the Emax is 96%.
On to `Cc1cc(CN2CC[C@H](C)[C@@H](c3cc(C(F)F)nc4ncnn34)C2)cc(Cl)n1.Cl` [Compound 11], for which the Emax was found to be 19%.
Still for that read-out and setting: the result for `C[C@@H]1CCN(Cc2ccc(Cl)c(Cl)c2)C[C@H]1c1cc(C(F)F)nc2ncnn12` [Compound 14] reads 102%; that for `Cc1cc(CN2CC[C@@H](C)[C@H](c3cc(C(F)F)nc4ncnn34)C2)ccn1.Cl` [Compound 15], 95%.
`Cc1cc(CN2CC[C@H](C)[C@@H](c3cc(C(F)F)nc4ncnn34)C2)ccn1.Cl` [Compound 16]: the Emax was 4%.
As to `CC(C)c1ccc(CN2CC[C@@H](C)[C@H](c3cc(C(F)F)nc4ncnn34)C2)cc1` [Compound 18], the Emax is 98%.
The same measure, in the same setting: then `C[C@@H]1CCN(Cc2nccc3ccccc23)C[C@H]1c1cc(C(F)F)nc2ncnn12` [Compound 19], with 96%; and `C[C@@H]1CCN(Cc2ccc(C#N)cc2)C[C@H]1c1cc(C(F)F)nc2ncnn12` [Compound 21], with 97%.
The same measure, in the same setting: then `C[C@@H]1CCN(Cc2cccc(OC(F)F)c2)C[C@H]1c1cc(C(F)F)nc2ncnn12` [Compound 22], with 95%; and `C[C@@H]1CCN(Cc2ccc(F)c(C(F)(F)F)c2)C[C@H]1c1cc(C(F)F)nc2ncnn12` [Compound 30], with 99%.

In the next experiment the test system is hPDE3B. Nature of the experiment: In vitro assay PDE3 (SPA, 3H-cAMP). It is filed as biochemical, human. The note with it: 0.4 μM cAMP substrate.
`Cc1cc(CN2CC[C@@H](C)[C@H](c3cc(C(F)F)nc4ncnn34)C2)cc(Cl)n1.Cl` [Compound 10]: the “hPDE3B pIC50” value was less than 5.
On the same count and under the same terms, the result for `Cc1cc(CN2CC[C@H](C)[C@@H](c3cc(C(F)F)nc4ncnn34)C2)cc(Cl)n1.Cl` [Compound 11] reads roughly 5.4; that for `C[C@@H]1CCN(Cc2ccc(Cl)c(Cl)c2)C[C@H]1c1cc(C(F)F)nc2ncnn12` [Compound 14], less than 5.
Same read-out and setting: the result for `Cc1cc(CN2CC[C@@H](C)[C@H](c3cc(C(F)F)nc4ncnn34)C2)ccn1.Cl` [Compound 15] reads less than 4.52.
Same read-out and setting: the result for `Cc1cc(CN2CC[C@H](C)[C@@H](c3cc(C(F)F)nc4ncnn34)C2)ccn1.Cl` [Compound 16] reads less than 5; that for `CC(C)c1ccc(CN2CC[C@@H](C)[C@H](c3cc(C(F)F)nc4ncnn34)C2)cc1` [Compound 18], 5.1; that for `C[C@@H]1CCN(Cc2nccc3ccccc23)C[C@H]1c1cc(C(F)F)nc2ncnn12` [Compound 19], less than 5.
Turning to `C[C@@H]1CCN(Cc2ccc(C#N)cc2)C[C@H]1c1cc(C(F)F)nc2ncnn12` [Compound 21], the “hPDE3B pIC50” value was less than 5.
The same measure, in the same setting: then `C[C@@H]1CCN(Cc2cccc(OC(F)F)c2)C[C@H]1c1cc(C(F)F)nc2ncnn12` [Compound 22], with less than 5; and `C[C@@H]1CCN(Cc2ccc(F)c(C(F)(F)F)c2)C[C@H]1c1cc(C(F)F)nc2ncnn12` [Compound 30], with less than 5.

The same experiment, now with this note: 0.4 μM cAMP substrate; in % (unit assumed).
Take `Cc1cc(CN2CC[C@@H](C)[C@H](c3cc(C(F)F)nc4ncnn34)C2)cc(Cl)n1.Cl` [Compound 10]: the “hPDE3B Emax” value is 19.
With `Cc1cc(CN2CC[C@H](C)[C@@H](c3cc(C(F)F)nc4ncnn34)C2)cc(Cl)n1.Cl` [Compound 11], the “hPDE3B Emax” value worked out at 71.
Same read-out and setting: the result for `C[C@@H]1CCN(Cc2ccc(Cl)c(Cl)c2)C[C@H]1c1cc(C(F)F)nc2ncnn12` [Compound 14] reads 39; that for `Cc1cc(CN2CC[C@@H](C)[C@H](c3cc(C(F)F)nc4ncnn34)C2)ccn1.Cl` [Compound 15], 17.
Still for that read-out and setting: the result for `Cc1cc(CN2CC[C@H](C)[C@@H](c3cc(C(F)F)nc4ncnn34)C2)ccn1.Cl` [Compound 16] reads 23; that for `CC(C)c1ccc(CN2CC[C@@H](C)[C@H](c3cc(C(F)F)nc4ncnn34)C2)cc1` [Compound 18], 60.
Still for that read-out and setting: the result for `C[C@@H]1CCN(Cc2nccc3ccccc23)C[C@H]1c1cc(C(F)F)nc2ncnn12` [Compound 19] reads 35.
`C[C@@H]1CCN(Cc2ccc(C#N)cc2)C[C@H]1c1cc(C(F)F)nc2ncnn12` [Compound 21]: the “hPDE3B Emax” value is 24.
Same read-out and setting: the result for `C[C@@H]1CCN(Cc2cccc(OC(F)F)c2)C[C@H]1c1cc(C(F)F)nc2ncnn12` [Compound 22] reads 42; that for `C[C@@H]1CCN(Cc2ccc(F)c(C(F)(F)F)c2)C[C@H]1c1cc(C(F)F)nc2ncnn12` [Compound 30], 21.

The next experiment addresses hPDE10A2 (Homo sapiens, UniProt Q9Y233). In words: biochemical. Particulars: human clone; 60 nM cAMP substrate; read-out: hPDE10A2 or rPDE10A2 pIC50 (converted). How it is done:
Rat recombinant PDE10A (rPDE10A2) was expressed in Sf9 cells using a recombinant rPDE10A baculovirus construct. Cells were harvested after 48 h of infection and the rPDE10A protein was purified by metal chelate chromatography on Ni-sepharose 6FF. Tested compounds were dissolved and diluted in 100% DMSO to a concentration 100 fold of the final concentration in the assay. Human recombinant PDE10A ([…]) was expressed in Sf9 cells using a recombinant hPDE10A baculovirus that was made and amplified in house. Cells were harvested after 72 h of infection and the hPDE10A protein was purified by metal chelate chromatography on Ni-sepharose. Compound dilutions (0.4 μl) were added in 384 well plates to 20 μl of incubation buffer (50 mM Tris pH 7.8, 8.3 mM MgCl2, 1.7 mM EGTA). 10 μl of rPDE10A or hPDE10A enzyme in incubation buffer was added and the reaction was started by addition of 10 μl substrate to a final concentration of 60 nM cAMP and […] ^3H-cAMP. The reaction was incubated for 60 minutes at room temperature. After incubation, the reaction was stopped with 20 μl of stop solution consisting of 17.8 mg/ml PDE SPA (scintillation proximity assay) beads. After sedimentation of the beads during 30 minutes the radioactivity was measured in a Perkin Elmer Topcount scintillation counter and results were expressed as cpm. For blanc values the enzyme was omitted from the reaction and replaced by incubation buffer. Control values were obtained by addition of a final concentration of 1% DMSO instead of compound. A best fit curve is fitted by a minimum sum of squares method to the plot of % of control value substracted with blanc value versus compound concentration and the half maximal inhibitory concentration (IC50) value is derived from this curve.
For the compound `Cc1cc(CN2CC[C@@H](C)[C@H](c3cc(C(F)F)nc4ncnn34)C2)cc(Cl)n1.Cl` [Compound 10], the IC50 is 1580 nM.
Regarding `Cc1cc(CN2CC[C@H](C)[C@@H](c3cc(C(F)F)nc4ncnn34)C2)cc(Cl)n1.Cl` [Compound 11], the IC50 is roughly 10200 nM.
As for `C[C@@H]1CCN(Cc2ccc(Cl)c(Cl)c2)C[C@H]1c1cc(C(F)F)nc2ncnn12` [Compound 14], the IC50 was 2290 nM.
Same read-out and setting: then `Cc1cc(CN2CC[C@@H](C)[C@H](c3cc(C(F)F)nc4ncnn34)C2)ccn1.Cl` [Compound 15], with roughly 10000 nM; and `Cc1cc(CN2CC[C@H](C)[C@@H](c3cc(C(F)F)nc4ncnn34)C2)ccn1.Cl` [Compound 16], with greater than 10000 nM.
Take `CC(C)c1ccc(CN2CC[C@@H](C)[C@H](c3cc(C(F)F)nc4ncnn34)C2)cc1` [Compound 18]: the IC50 is 7760 nM.
Still for that read-out and setting: the result for `C[C@@H]1CCN(Cc2nccc3ccccc23)C[C@H]1c1cc(C(F)F)nc2ncnn12` [Compound 19] reads 8510 nM; that for `C[C@@H]1CCN(Cc2ccc(C#N)cc2)C[C@H]1c1cc(C(F)F)nc2ncnn12` [Compound 21], roughly 10000 nM.
Still for that read-out and setting: then `C[C@@H]1CCN(Cc2cccc(OC(F)F)c2)C[C@H]1c1cc(C(F)F)nc2ncnn12` [Compound 22], with 7760 nM; and `C[C@@H]1CCN(Cc2ccc(F)c(C(F)(F)F)c2)C[C@H]1c1cc(C(F)F)nc2ncnn12` [Compound 30], with 7940 nM.

The same experiment, now with this note: read-out: hPDE10A2 or rPDE10A2 Emax, human clone; 60 nM cAMP substrate.
Consider `Cc1cc(CN2CC[C@@H](C)[C@H](c3cc(C(F)F)nc4ncnn34)C2)cc(Cl)n1.Cl` [Compound 10], for which the Emax is 82%.
Still for that read-out and setting: the result for `Cc1cc(CN2CC[C@H](C)[C@@H](c3cc(C(F)F)nc4ncnn34)C2)cc(Cl)n1.Cl` [Compound 11] reads 47%; that for `C[C@@H]1CCN(Cc2ccc(Cl)c(Cl)c2)C[C@H]1c1cc(C(F)F)nc2ncnn12` [Compound 14], 80%; that for `Cc1cc(CN2CC[C@@H](C)[C@H](c3cc(C(F)F)nc4ncnn34)C2)ccn1.Cl` [Compound 15], 45%.
As to `Cc1cc(CN2CC[C@H](C)[C@@H](c3cc(C(F)F)nc4ncnn34)C2)ccn1.Cl` [Compound 16], the Emax is 10%.
Same read-out and setting: the result for `CC(C)c1ccc(CN2CC[C@@H](C)[C@H](c3cc(C(F)F)nc4ncnn34)C2)cc1` [Compound 18] reads 56%; that for `C[C@@H]1CCN(Cc2nccc3ccccc23)C[C@H]1c1cc(C(F)F)nc2ncnn12` [Compound 19], 58%; that for `C[C@@H]1CCN(Cc2ccc(C#N)cc2)C[C@H]1c1cc(C(F)F)nc2ncnn12` [Compound 21], 48%.
Still for that read-out and setting: then `C[C@@H]1CCN(Cc2cccc(OC(F)F)c2)C[C@H]1c1cc(C(F)F)nc2ncnn12` [Compound 22], with 61%; and `C[C@@H]1CCN(Cc2ccc(F)c(C(F)(F)F)c2)C[C@H]1c1cc(C(F)F)nc2ncnn12` [Compound 30], with 55%.
